Structures can show the parent of a compound that is named as a salt. One block for each molecule: values may come before it.
What was measured:
[1] = Hydrolytic stability study; format: physicochemical; details: 1 mg/mL; for % Parent Remaining: DMSO/water (3:1)
Procedure: Chemical stability of compounds of the invention was assessed in a mixture of DMSO and water (3:1) at a test compound concentration of 1 mg/mL.
General HPLC Procedure • Agilent, Waters X-Select C18, 2.5 μm, 4.6×30 mm column, 4 min method, 5-95% MeCN/water (0.1% formic acid). Flow rate 2.5 mL/min. Column Oven Temperature 40° C. Detection 254 nm.
Sample Preparation • A 1.0 mg sample of test compound was dissolved in 750 μL of DMSO. Water (250 μL) was added slowly, ensuring no precipitation occurred.
Recording Stability • A 50 μL aliquot of the test solution was removed and analysed in duplicate by 5 μL HPLC injections. The peak area for the test compound was recorded following manual integration of the corresponding UV trace. • The test solution was heated to 60° C., with stirring, and 50 μL aliquots removed for HPLC analysis at 5 and 24 h timepoints.

[2] = test system: Salmonella typhimurium, strains TA1535, TA1537, TA98 and TA100; assay: Bacterial reverse mutation screen (plate incorporation); details: for limit of solubility in the mutation test: all strains; for limit of solubility in the mutation test / mutagenic effects (revertant numbers): presence and absence of S-9 mix; for toxicity to the bacteria (mean colony count): at 500-5000 μg/plate in some strains
[3] = test system: Escherichia coli, WP2 uvrA; assay: as above; details: for mutagenic effects (revertant numbers): presence and absence of S-9 mix
[4] = test system: non-mutant kinases; assay: KinomeScan selectivity scores; format: binding; details: for KinomeScan Selectivity Score S(10): kinases with % Ctrl <10 / kinases tested; for KinomeScan Selectivity Score S(1): kinases with % Ctrl <1 / kinases tested; for kinase selectivity compared to the Reference Compound: KINOMEscan selectivity scores
Excerpt: These assays may be conducted by DiscoverX (formerly Ambit; San Diego, Calif.).

[5] = test system: Crohn's patients; details: transient, baseline by week 8; cited from earlier work
[6] = test system: patients with severe Crohn's disease; details: over 8 weeks; cited from earlier work
[7] = test system: rheumatoid arthritis patients; details: cited from earlier work
[8] = test system: LPS-stimulated rats; assay: Endotoxin-induced uveitis in rats (assay vi); format: in vivo, rat; details: rats treated with intravitreal endotoxin LPS
Procedure: Male, Lewis rats (6-8 weeks old, Charles River UK Limited) are housed in cages of 3 at 19-21° C. with a 12 h light/dark cycle (07:00/19:00) and fed a standard diet of rodent chow and water ad libitum. Non-fasted rats are weighed, individually identified on the tail with a permanent marker, and receive a single intravitreal administration into the right vitreous humor (5 μL dose volume) of 100 ng/animal of LPS (Escherichia coli 0111:B4 prepared in PBS, Sigma Aldrich, UK) using a 32-gauge needle. Untreated rats are injected with PBS. Test compound or vehicle (4% polyoxyl 40 stearate, 4% mannitol in PBS (pH 7.4)) are administered by the topical route onto the right eye (10 μL) of animals 1 hour prior to LPS, at the time of LPS administration, and 1, 2 and 4 hours post LPS administration. Before administration, the solution to be administered is sonicated to ensure a clear solution. 6 hours after LPS dosing, animals are euthanized by overdose with pentobarbitone (via cardiac puncture) Immediately after euthanasia, 10 μL of aqueous humor is collected from the right eye of the rats by puncture of the anterior chamber using a 32 gauge needle under a surgical microscope. The aqueous humor is diluted in 20 μL of PBS and total cell counts are measured immediately using a Countess automated cell counter (Invitrogen). […]

[9] = test system: eyes of albino New Zealand White rabbits; details: Phase 1, one treatment day, 0.1 and 1.0 mg/mL
[10] = Stability of pharmaceutical formulations; format: physicochemical; details: for Purity (%) at week n = 4: 4 weeks
Procedure: The samples were sonicated to achieve clear solutions having the following properties: Osmolality (mOsm/kg): 310 (Na), 314 (HCl); pH: 7.00 (Na), 7.05 (HCl). 0.5 mL of the stock solutions were diluted to 1 mL with 20% DMSO in water & injected for purity analysis by HPLC. The remaining stock solutions were then split into aliquots of 0.5 mL in HPLC vials, and stored at various conditions in duplicate. Samples were stored at 5 and 25° C., before being analysed by HPLC at 1, 2 and 4 weeks. Separate samples were stored at 40° C. and analysed at 4 weeks.

[11] = test system: Jurkat cells; assay: Cell cytotoxicity assay (assay r); format: cell-based, human; details: 24 hours
Procedure: 1×10^5 Jurkat cells (immortalised human T lymphocytes) are added to the appropriate number of wells of a 96 well plate in 100 μL of media (RPMI supplemented with 10% foetal bovine serum). 1 μL of DMSO control (final concentration 1.0% v/v) or test compound (final concentration 20, 5 or 1 μg/mL) is added to the wells and incubated at 37° C., 5% CO2. After 24 hours, the plate is centrifuged at 1200 rpm for 3 minutes and the supernatant discarded. Cells are then resuspended in 150 μL (final concentration 7.5 μg/mL) of propidium iodide (PI) in PBS and incubated at 37° C., 5% CO2 for 15 minutes. After 15 minutes, cells are analysed by flow cytometry (BD accuri) using the FL3 window. The % viability is calculated as the % of cells that are PI negative in the test wells normalised to the DMSO control.

[12] = 60° C., 24 h timepoint (1429-1450 min)

decomposition (hydrolytic stability) ([1]; DMSO and water (3:1), 60° C., 5 and 24 h): underwent substantial decomposition
% Parent Remaining ([1]; 60° C., 5 h timepoint (297-317 min)): 79%
% Parent Remaining [1, 12]: 18%
% Parent Remaining ([1]; time 0 min): 100%
Structure (SMILES): C#Cc1cc(Nc2nccc(Oc3ccc(NC(=O)Nc4cc(C(C)C)nn4-c4ccc(C)cc4)c4ccccc34)n2)cc(C(=O)NCCN2CCOCC2)c1 [Reference Compound B, 3-ethynyl-5-((4-((4-(3-(3-isopropyl-1-(p-tolyl)-1H-pyrazol-5-yl)ureido)naphthalen-1-yl)oxy)pyrimidin-2-yl)amino)-N-(2-morpholinoethyl)benzamide, reference compound]

Structure (SMILES): COc1cc(Nc2cc(Oc3ccc(NC(=O)Nc4cc(C(C)(C)C)cc(NS(C)(=O)=O)c4OC)c4ccccc34)ccn2)ccc1P(C)(=O)O [Example 44, (4-((4-((4-(3-(5-(tert-Butyl)-2-methoxy-3-(methylsulfonamido)phenyl)ureido)naphthalen-1-yl)oxy)pyridin-2-yl)amino)-2-methoxyphenyl)(methyl)phosphinic acid]
limit of solubility in the mutation test [2]: 5000 μg/plate
toxicity to the bacteria (mean colony count) [2]: reduction in the mean colony count
mutagenic effects (revertant numbers) [2]: absence of any mutagenic effects
toxicity to the bacteria (mean colony count) ([3]; 5000 μg/plate, absence of S-9 mix): reduction in the mean colony count
mutagenic effects (revertant numbers) [3]: absence of any mutagenic effects
% Parent Remaining [1, 12]: 98%
% Parent Remaining ([1]; time 0 min): 100%

Structure (SMILES): COc1cc(Nc2cc(Oc3ccc(NC(=O)Nc4cc(C(C)(C)C)cc(NS(C)(=O)=O)c4OC)c4ccccc34)ccn2)cc(OC)c1C(=O)NCCOCCOCCOP(=O)(O)O [Example 47, 2-(2-(2-(4-((4-((4-(3-(5-(tert-butyl)-2-methoxy-3-(methylsulfonamido)phenyl)ureido)-naphthalen-1-yl)oxy)pyridin-2-yl)amino)-2,6-dimethoxybenzamido)ethoxy)ethoxy)ethyl dihydrogen phosphate]
% Parent Remaining [1, 12]: 89%
% Parent Remaining ([1]; time 0 min): 100%
KinomeScan Selectivity Score S(10) ([4]; 50 nM): 0.042
KinomeScan Selectivity Score S(1) ([4]; 500 nM): 0.074
kinase selectivity compared to the Reference Compound [4]: improved selectivities

Structure (SMILES): Cc1ccc(-n2nc(C(C)(C)C)cc2NC(=O)Nc2ccc(OCCN3CCOCC3)c3ccccc23)cc1 [BIRB796]
clinical benefit (C-reactive protein levels) [5]: improvement in C-reactive protein levels

Structure (SMILES): C/C(=N\N=C(N)N)c1cc(NC(=O)CCCCCCCCC(=O)Nc2cc(/C(C)=N/N=C(N)N)cc(/C(C)=N/N=C(N)N)c2)cc(/C(C)=N/N=C(N)N)c1.Cl.Cl.Cl.Cl [CNI-1493]
clinical score [6]: significant improvement in clinical score

Structure (SMILES): COc1cc(Nc2ncc(F)c(Nc3ccc4c(n3)N(COP(=O)(O)O)C(=O)C(C)(C)O4)n2)cc(OC)c1OC [Fostamatinib]
clinical outcome and serum IL-6 and MMP-3 [7]: improved clinical outcome and reduced serum levels of IL-6 and MMP-3

Structure (SMILES): COc1cc(Nc2cc(Oc3ccc(NC(=O)Nc4cc(C(C)(C)C)cc(NS(C)(=O)=O)c4OC)c4ccccc34)ccn2)ccc1C(=O)O [Example 1, 4-((4-((4-(3-(5-(tert-Butyl)-2-methoxy-3-(methylsulfonamido)phenyl)ureido)naphthalen-1-yl)oxy)pyridin-2-yl)amino)-2-methoxybenzoic acid]
cellular infiltration (cell counts) in the eyes [8]: significantly and dose-dependently reduced
cytokine IL-1β levels in anterior and posterior segments of the eyes [8]: significantly and dose-dependently reduced
limit of solubility in the mutation test [2]: 1500 μg/plate
toxicity to the bacteria (mean colony count) [2]: reduction in the mean colony count
mutagenic effects (revertant numbers) [2]: absence of any mutagenic effects
mutagenic effects (revertant numbers) [3]: absence of any mutagenic effects
ocular reactions versus vehicle controls [9]: no differences in the frequency, severity and incidence
stability in solution ([10]; 1 mg/mL Na and HCl salts, 10 mM pH 7.2 phosphate buffer, 4.5% mannitol, 3% polyoxyl 40 stearate, 5° C., up to 4 weeks): stable

Structure (SMILES): COc1cc(Nc2cc(Oc3ccc(NC(=O)Nc4cc(C(C)(C)C)cc(NS(C)(=O)=O)c4OC)c4ccccc34)ccn2)ccc1C(=O)O [Example 1, sodium salt]
Purity (%) at week n = 4 ([10]; 1 mg/mL buffered solution stored at 40° C., duplicate samples): 76.0%

Structure (SMILES): COc1cc(Nc2cc(Oc3ccc(NC(=O)Nc4cc(C(C)(C)C)cc(NS(C)(=O)=O)c4OC)c4ccccc34)ccn2)cc(OC)c1C(=O)NCCOCCOCCO [Example 36, 4-((4-((4-(3-(5-(tert-Butyl)-2-methoxy-3-(methylsulfonamido)phenyl)ureido)naphthalen-1-yl)oxy)pyridin-2-yl)amino)-N-(2-(2-(2-hydroxyethoxy)ethoxy)ethyl)-2,6-dimethoxybenzamide]
KinomeScan Selectivity Score S(1) ([4]; 50 nM): 0.002
KinomeScan Selectivity Score S(10) ([4]; 50 nM): 0.050
KinomeScan Selectivity Score S(1) ([4]; 500 nM): 0.079
kinase selectivity compared to the Reference Compound [4]: improved selectivities

Structure (SMILES): COc1cc(Nc2cc(Oc3ccc(NC(=O)Nc4cc(C(C)(C)C)cc(NS(C)(=O)=O)c4OC)c4ccccc34)ccn2)ccc1C(=O)O.Cl [Example 1, hydrochloride salt, 4-((4-((4-(3-(5-(tert-butyl)-2-methoxy-3-(methylsulfonamido)phenyl)ureido)naphthalen-1-yl)oxy)pyridin-2-yl)amino)-2-methoxybenzoic acid, hydrochloride salt]
Purity (%) at week n = 2 ([10]; 1 mg/mL buffered solution stored at 5° C., 2 weeks, duplicate samples, hydrochloride salt): 98.0%
Purity (%) at week n = 4 ([10]; 1 mg/mL buffered solution stored at 5° C., duplicate samples, hydrochloride salt): 98.0%
Purity (%) at week n = 1 ([10]; 1 mg/mL buffered solution stored at 25° C., 1 week, duplicate samples): 98.0%

Structure (SMILES): COc1cc(Nc2cc(Oc3ccc(NC(=O)Nc4cc(C(C)(C)C)cc(NS(C)(=O)=O)c4OC)c4ccccc34)ccn2)ccc1C(=O)NC[C@@H]1O[C@H](CO)[C@@H](O)[C@H](O)[C@H]1O [17(co), 4-((4-((4-(3-(5-(tert-Butyl)-2-methoxy-3-(methylsulfonamido)phenyl)ureido)naphthalen-1-yl)oxy)pyridin-2-yl)amino)-2-methoxy-N-(((2S,3R,4R,5S,6R)-3,4,5-trihydroxy-6-(hydroxymethyl)tetrahydro-2H-pyran-2-yl)methyl)benzamide]
% Viability at 1 μg/mL [11]: 74.3%

Source: US10392346B2, “Kinase inhibitors” (Topivert Pharma Limited, priority 2014, dated 2019)
